Data on one compound can be found in ChEMBL document CHEMBL5344413, “Discovery of 4-(1,2,4-Oxadiazol-5-yl)azepan-2-one Derivatives as a New Class of Cannabinoid Type 2 Receptor Agonists for the Treatment of Inflammatory Pain” (J Med Chem, 2023).

Active and inactive are the calls of the source. The rule behind the calls is not given here.

Data set [1] can be described thus: Intrinsic clearance in human liver at 10 uM measured per kg body weight. It is filed as ADME, tissue-based.
Data set [2] is described as follows: Toxicity against C57BL/6 mouse assessed as induction of catalepsy at 20 mg/kg, ip measured within 4 hrs. Type of data set: organism-based. As to conditions: in vivo.
The nature of data set [3]: Half life in BALB/c mouse at 5 mg/kg, po. As to conditions: in vivo. Type of data set: ADME, organism-based.
The nature of data set [4]: AUC(0 to infinity) in BALB/c mouse at 20 mg/kg, po. Particulars: in vivo. Type of data set: ADME, organism-based. On the set-up: dose 20 mg/kg, route po.
Data set [5] in a line: Metabolic stability of the compound in rat liver microsomes assessed as parent compound remaining at 10 uM measured after 60 mins. Type of data set: ADME, Microsome. Particulars: read-out: Stability.
Data set [6] is described as follows: Half life in rat liver microsomes at 10 uM. Type of data set: ADME, Microsome.
Data set [7] can be described thus: Toxicity against C57BL/6 mouse assessed as change in body temperature at 20 mg/kg, ip measured within 4 hrs by thermometer analysis. Type of data set: organism-based. As to conditions: in vivo.
For data set [8], the system named is Cannabinoid receptor 2 (Homo sapiens), P34972 [UNDEFINED MUTATION]. Nature of the data set: Agonist activity at CB2 receptor F183ECL2A mutant (unknown origin) expressed in CHO cells assessed as inhibition of forskolin-stimulated intracellular cAMP accumulation measured after 30 mins by Glosensor assay. It is filed as cell-based.
Sequence of Cannabinoid receptor 2 (Homo sapiens), P34972 [UNDEFINED MUTATION] (P34972 whole entry, looked up, stated change not applied): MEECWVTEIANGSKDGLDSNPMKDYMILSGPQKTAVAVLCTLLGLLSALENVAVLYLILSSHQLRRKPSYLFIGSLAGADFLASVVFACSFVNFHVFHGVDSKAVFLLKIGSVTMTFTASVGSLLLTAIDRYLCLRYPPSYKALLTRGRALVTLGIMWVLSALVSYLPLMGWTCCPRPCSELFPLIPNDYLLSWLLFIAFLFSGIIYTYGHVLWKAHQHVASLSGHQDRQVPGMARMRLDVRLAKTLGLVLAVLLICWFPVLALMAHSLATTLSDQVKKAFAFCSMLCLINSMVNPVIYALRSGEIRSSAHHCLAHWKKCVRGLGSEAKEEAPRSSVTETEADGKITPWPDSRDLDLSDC
Data set [9] in a line: Cmax in BALB/c mouse at 5 mg/kg, po. Type of data set: ADME, organism-based. On the set-up: dose 5 mg/kg, route po. Particulars: in vivo.
Data set [10] is described as follows: Intrinsic clearance in rat liver microsomes at 10 uM measured per mg protein. Type of data set: ADME, Microsome. As to conditions: read-out: CLH.
A short description of data set [11]: Metabolic stability of the compound in mouse liver microsomes assessed as parent compound remaining at 10 uM measured after 60 mins. Type of data set: ADME, Microsome. Particulars: read-out: Stability.
Data set [12] can be described thus: Half life in human liver microsomes at 10 uM. Type of data set: ADME, Microsome.
Data set [13] has as its system Mus musculus. Nature of the data set: Antinociceptive activity against carrageenan-induced inflammatory C57BL/6 mouse model assessed as reduction in paw thickness at 20 mg/kg, ip measured at 5 hrs and 2 hrs following carrageenan and compound challenge respectively by digital caliper analysis. Type of data set: functional, organism-based.
Data set [14] is described as follows: AUC(0 to t) in BALB/c mouse at 5 mg/kg, ip. More on the design: dose 5 mg/kg, route ip. Particulars: in vivo. It is filed as ADME, organism-based.
Data set [15] in a line: AUC(0 to t) in BALB/c mouse at 1 mg/kg, iv. It is filed as ADME, organism-based. More on the design: dose 1 mg/kg, route iv. As to conditions: in vivo.

For `O=C1CC(c2nc(-c3ccc(F)c4cn[nH]c34)no2)CCCN1c1ccc(F)cc1` (stereo not given), the CLH in data set [1] came out at 28.8 mL/min/kg. Further, the Activity result in [2] and in data set [7] was “Non-Toxic” throughout. Further, the half-life in [3] was 42 min. Moreover, the AUC(0-inf) in data set [4] was 18000 ng·h/mL. In addition, the remaining at 1 h, 10 µM in [5] is 1.83%; in data set [11], 3.15%. In addition, the half-life at 10 µM in [6] came to 10.7 min; in data set [12] it was 60.3 min. Also, the result in [8] was inactive. In data set [9], this compound showed a Cmax of 621 ng/mL. In addition, in data set [10], the microsomal CLint at 10 µM was determined as 130 µL/min/mg. The result in data set [13] was Active. Also, the figures for the area under the curve AUC(0-t) in data set [14] and in data set [15] were 1830 ng·h/mL and 413 ng·h/mL, respectively.
